Molecules are shown by their SMILES. Active and inactive are the calls of the source. How the calls were made is not given here. *1 amine or outer side, *2 acyl side, *3 side chain or, on linkers, in order; H or OH if unused. Where a SMILES comes first, the peptide text is derived from it. Bridges are numbered along the chain shown (N, C = ends). Roman numbers before positions name the chains, in order. [ ]: non-standard residue; d: D form. Actinocin(9to1) = Cc1c2oc3c(C)ccc(C(=O)[*:1])c3nc-2c(C(=O)[*:2])c(N)c1=O; NMeV = CN[C@H](C(=O)O)C(C)C; Sar = CNCC(=O)O

The data set relates to CCRIS mutagenicity, Ames/micronucleus/aberration tests. The experiment in a line: CCRIS mutagenicity studies.
[1] abbreviates: Test System: AMES SALMONELLA TYPHIMURIUM, Strain/Indicator: TA97, Metabolic Activation: NONE, Method: PREINCUBATION
[2] abbreviates: Test System: AMES SALMONELLA TYPHIMURIUM, Strain/Indicator: TA98, Metabolic Activation: NONE, Method: PREINCUBATION
The mark [3] stands for this setting: Test System: AMES SALMONELLA TYPHIMURIUM, Strain/Indicator: TA100, Metabolic Activation: NONE, Method: PREINCUBATION
The mark [4] stands for this setting: Test System: AMES SALMONELLA TYPHIMURIUM, Strain/Indicator: TA1535, Metabolic Activation: NONE, Method: PREINCUBATION
The mark [5] stands for this setting: Test System: AMES SALMONELLA TYPHIMURIUM, Strain/Indicator: TA98, Metabolic Activation: NONE, Method: STANDARD PLATE.
[6] abbreviates: Test System: AMES SALMONELLA TYPHIMURIUM, Strain/Indicator: TA100, Metabolic Activation: NONE, Method: STANDARD PLATE.
Where [7] appears, read: Test System: AMES SALMONELLA TYPHIMURIUM, Strain/Indicator: TA1537, Metabolic Activation: NONE, Method: STANDARD PLATE.

With `Clc1cccc(-c2ccc(Cl)c(Cl)c2Cl)c1Cl`, the mutagenic call (Test System: AMES SALMONELLA TYPHIMURIUM, Strain/Indicator: TA97, Metabolic Activation: HAMSTER, LIVER, S-9, AROCLOR 1254 (10 OR 30%), Method: PREINCUBATION) is “inactive; negative”; the mutagenic call under setting [1] is “inactive; negative”; the mutagenic call (Test System: AMES SALMONELLA TYPHIMURIUM, Strain/Indicator: TA97, Metabolic Activation: RAT, LIVER, S-9, AROCLOR 1254 (10 OR 30%), Method: PREINCUBATION) was “inactive; negative”; the mutagenic call (Test System: AMES SALMONELLA TYPHIMURIUM, Strain/Indicator: TA98, Metabolic Activation: HAMSTER, LIVER, S-9, AROCLOR 1254 (10 OR 30%), Method: PREINCUBATION) was “inactive; negative”; the mutagenic call under setting [2] is “inactive; negative”; the mutagenic call (Test System: AMES SALMONELLA TYPHIMURIUM, Strain/Indicator: TA98, Metabolic Activation: RAT, LIVER, S-9, AROCLOR 1254 (10 OR 30%), Method: PREINCUBATION) was “inactive; negative”. Also, the mutagenic call was “inactive; negative” (Test System: AMES SALMONELLA TYPHIMURIUM, Strain/Indicator: TA100, Metabolic Activation: HAMSTER, LIVER, S-9, AROCLOR 1254 (10 OR 30%), Method: PREINCUBATION); “inactive; negative” under setting [3]; “inactive; negative” (Test System: AMES SALMONELLA TYPHIMURIUM, Strain/Indicator: TA100, Metabolic Activation: RAT, LIVER, S-9, AROCLOR 1254 (10 OR 30%), Method: PREINCUBATION); “inactive; negative” (Test System: AMES SALMONELLA TYPHIMURIUM, Strain/Indicator: TA1535, Metabolic Activation: HAMSTER, LIVER, S-9, AROCLOR 1254 (10 OR 30%), Method: PREINCUBATION); “inactive; negative” under setting [4]; “inactive; negative” (Test System: AMES SALMONELLA TYPHIMURIUM, Strain/Indicator: TA1535, Metabolic Activation: RAT, LIVER, S-9, AROCLOR 1254 (10 OR 30%), Method: PREINCUBATION). For the same molecule, the mutagenic call runs as follows: (Test System: AMES SALMONELLA TYPHIMURIUM, Strain/Indicator: TA1537, Metabolic Activation: HAMSTER, LIVER, S-9, AROCLOR 1254 (10 OR 30%), Method: PREINCUBATION) “inactive; negative”; (Test System: AMES SALMONELLA TYPHIMURIUM, Strain/Indicator: TA1537, Metabolic Activation: NONE, Method: PREINCUBATION) “inactive; negative”; (Test System: AMES SALMONELLA TYPHIMURIUM, Strain/Indicator: TA1537, Metabolic Activation: RAT, LIVER, S-9, AROCLOR 1254 (10 OR 30%), Method: PREINCUBATION) “inactive; negative”; (Test System: E. COLI, Strain/Indicator: WP2 UVRA, Metabolic Activation: HAMSTER, LIVER, S-9, AROCLOR 1254, Method: STANDARD PLATE) “inactive; negative”; (Test System: E. COLI, Strain/Indicator: WP2 UVRA, Metabolic Activation: HAMSTER, LIVER, S-9, Method: STANDARD PLATE) “inactive; negative”; (Test System: E. COLI, Strain/Indicator: WP2 UVRA, Metabolic Activation: MOUSE, LIVER, S-9, AROCLOR 1254, Method: STANDARD PLATE) “inactive; negative”. The mutagenic call runs as follows: (Test System: E. COLI, Strain/Indicator: WP2 UVRA, Metabolic Activation: MOUSE, LIVER, S-9, Method: STANDARD PLATE) “inactive; negative”; (Test System: E. COLI, Strain/Indicator: WP2 UVRA, Metabolic Activation: NONE, Method: STANDARD PLATE) “inactive; negative”; (Test System: E. COLI, Strain/Indicator: WP2 UVRA, Metabolic Activation: RAT, LIVER, S-9, AROCLOR 1254, Method: STANDARD PLATE) “inactive; negative”; (Test System: E. COLI, Strain/Indicator: WP2 UVRA, Metabolic Activation: RAT, LIVER, S-9, Method: STANDARD PLATE) “inactive; negative”.

As for `CCNc1cccc(O)c1`, the mutagenic call is, setting by setting: (Test System: AMES SALMONELLA TYPHIMURIUM, Strain/Indicator: TA97, Metabolic Activation: HAMSTER, LIVER, S-9, AROCLOR 1254 (10%), Method: PREINCUBATION) “inactive; negative”; under setting [1], “inactive; negative”; (Test System: AMES SALMONELLA TYPHIMURIUM, Strain/Indicator: TA97, Metabolic Activation: RAT, LIVER, S-9, AROCLOR 1254 (10%), Method: PREINCUBATION) “inactive; negative”; (Test System: AMES SALMONELLA TYPHIMURIUM, Strain/Indicator: TA98, Metabolic Activation: HAMSTER, LIVER, S-9, AROCLOR 1254 (10%), Method: PREINCUBATION) “active; positive”; under setting [2], “inactive; negative”; (Test System: AMES SALMONELLA TYPHIMURIUM, Strain/Indicator: TA98, Metabolic Activation: RAT, LIVER, S-9, AROCLOR 1254 (10%), Method: PREINCUBATION) “active; positive”. Further, the mutagenic call by setting is: (Test System: AMES SALMONELLA TYPHIMURIUM, Strain/Indicator: TA100, Metabolic Activation: HAMSTER, LIVER, S-9, AROCLOR 1254 (10%), Method: PREINCUBATION) “inactive; negative”; under setting [3], “inactive; negative”; (Test System: AMES SALMONELLA TYPHIMURIUM, Strain/Indicator: TA100, Metabolic Activation: RAT, LIVER, S-9, AROCLOR 1254 (10%), Method: PREINCUBATION) “inactive; negative”; (Test System: AMES SALMONELLA TYPHIMURIUM, Strain/Indicator: TA1535, Metabolic Activation: HAMSTER, LIVER, S-9, AROCLOR 1254 (10%), Method: PREINCUBATION) “inactive; negative”; under setting [4], “inactive; negative”; (Test System: AMES SALMONELLA TYPHIMURIUM, Strain/Indicator: TA1535, Metabolic Activation: RAT, LIVER, S-9, AROCLOR 1254 (10%), Method: PREINCUBATION) “inactive; negative”.

For `CNc1ccc(C(=C2C=CC(=[N+](C)C)C=C2)c2ccc(N(C)C)cc2)cc1`, the mutagenic call (Test System: AMES SALMONELLA TYPHIMURIUM, Strain/Indicator: TA100, Method: PREINCUBATION) is “active; positive”.

For the molecule `CC(=O)OCc1c2ccccc2c2ccc3cccc4ccc1c2c43`, the mutagenic call runs as follows: under setting [5], “active; positive”; under setting [6], “active; positive”.

On to `Cc1c2oc3c(C)ccc(C(=O)N[C@@H]4C(=O)N[C@H](C(C)C)C(=O)N5CCC[C@H]5C(=O)N(C)CC(=O)N(C)[C@@H](C(C)C)C(=O)O[C@@H]4C)c3nc-2c(C(=O)N[C@@H]2C(=O)N[C@H](C(C)C)C(=O)N3CCC[C@H]3C(=O)N(C)CC(=O)N(C)[C@@H](C(C)C)C(=O)O[C@@H]2C)c(N)c1=O` (I: T[dV]P[Sar][NMeV] / II: T[dV]P[Sar][NMeV]; ester I:1-I:C, II:1-II:C; linker I:N-II:N via Actinocin(9to1)), for which the mutagenic call was “active; positive” (End Point: IN VITRO MICRONUCLEUS, Test System: CHO CELLS, Metabolic Activation: RAT, LIVER, S-9, AROCLOR 1254); “active; positive” (End Point: IN VITRO MICRONUCLEUS, Test System: V79 CELLS, Metabolic Activation: NONE); “inactive; negative” under setting [5]; “inactive; negative” under setting [6]; “inactive; negative” (Test System: AMES SALMONELLA TYPHIMURIUM, Strain/Indicator: TA102, Metabolic Activation: NONE, Method: STANDARD PLATE); “inactive; negative” under setting [7]. For the same molecule, the mutagenic call reads like this: (Test System: E. COLI, Strain/Indicator: WP2 (HCR), Metabolic Activation: NONE, Method: STANDARD PLATE) “inactive; negative”; (Test System: MOUSE LYMPHOMA, Strain/Indicator: L5178Y (TK+/TK-), Metabolic Activation: NONE, Method: SUSPENSION/PLATE) “active; positive”.

Regarding `O=C(O)c1cc([N+](=O)[O-])cc2cccnc12`, the mutagenic call reads like this: under setting [5], “active; positive”; (Test System: AMES SALMONELLA TYPHIMURIUM, Strain/Indicator: TA98, Metabolic Activation: RAT, LIVER, S-9, AROCLOR 1254, Method: STANDARD PLATE) “active; positive”; under setting [6], “inactive; negative”; (Test System: AMES SALMONELLA TYPHIMURIUM, Strain/Indicator: TA100, Metabolic Activation: RAT, LIVER, S-9, AROCLOR 1254, Method: STANDARD PLATE) “active; positive”; (Test System: AMES SALMONELLA TYPHIMURIUM, Strain/Indicator: TA1535, Metabolic Activation: NONE, Method: STANDARD PLATE) “inactive; negative”; (Test System: AMES SALMONELLA TYPHIMURIUM, Strain/Indicator: TA1535, Metabolic Activation: RAT, LIVER, S-9, AROCLOR 1254, Method: STANDARD PLATE) “inactive; negative”. Further, the mutagenic call runs as follows: under setting [7], “inactive; negative”; (Test System: AMES SALMONELLA TYPHIMURIUM, Strain/Indicator: TA1537, Metabolic Activation: RAT, LIVER, S-9, AROCLOR 1254, Method: STANDARD PLATE) “inactive; negative”.

Values taken from PubChem BioAssay AID1259407 (Chemical Carcinogenesis Research Information System (CCRIS), 2018).
